These results are taken from patent publication US11166940B2, “Treatment of cardiac disorders by blocking SK4 potassium channel” (Ramot at Tel-Aviv University Ltd., priority 2016, dated 2021).

One assay relates to CPVT2 hiPSC-CMs. Briefly: Spontaneous APs and DADs in hiPS-CMs derived from CPVT2 (CASQ2 D307H) patients. Format: cell-based, human. Particulars: 5 μM TRAM-34 added to 3 μM isoproterenol. The protocol:
(§1) In all experiments, the coverslips were perfused at 33° C. with an external solution containing (in mM): 140 NaCl, 4 KCl, 11 Glucose, 1.2 MgCl2, 1.8 CaCl2, 5.5 HEPES titrated to pH 7.4 with NaOH and adjusted at 320 mOsm with sucrose.
FIG. 4F (Left) presents representative traces of spontaneous APs recorded in hiPS-CM derived from a CPVT2 (CASQ2 D307H) patients. From a regular pacing (black trace), DADs appeared when the cell was exposed to 3 μM isoproterenol (red trace, arrows). […] The suppression of cell 540 automaticity was reversible upon washout (blue trace). FIG. 4F (Right) present bar graphs showing data summary of pacing rate (n=17), on APD50 (n=17) and DADs (Normalized to Ctrl; one-way ANOVA***P=0.0001, n=15).

The subject of another assay is normal hiPSC-CMs. Briefly: Spontaneous APs in hiPS-CMs derived from normal individuals. Format: cell-based, human. Particulars: 5 μM TRAM-34 added to 3 μM isoproterenol. The protocol: as §1
FIG. 4E (Left) presents representative traces of spontaneous APs recorded in hiPS-CM derived from a normal individual. […] FIG. 4E (Right) are bar graphs presenting data summary of pacing rate (normalized to Ctrl; one-way ANOVA **P=0.0071, n=14), DD slope (paired t-test, ***P<0.0001, n=14) and APD50 (one-way ANOVA *P=0.0243, n=18).

Assay [1] relates to intact SAN tissue preparations from WT mice. Briefly: Spontaneous calcium transients ex vivo in intact SAN tissue from WT mice (Fluo-4 AM). Format: cell-based, mouse. Particulars: 2 μM TRAM-34 in presence of 100 nM isoproterenol. How it is done: SAN tissue preparations were dissected ex vivo from WT and CASQ2-D307H KI mice as described in Torrente, A. G., et al. Proc Natl Acad Sci USA 112, 9769-9774 (2015). The dissected whole SAN tissue was pinned on a hand-made chamber and was incubated in a Tyrode solution containing 10 μM Fluo-4 AM (Thermo Fisher Scientific) and pluronic acid for 1 hour at 37° C. in the dark. The SAN tissue was washed in Tyrode at 37° C. in the dark for 10 minutes before experiments. Fluorescence of calcium transients was recorded using a photomultiplier (PTi D-104) at 35° C. and the analog signals were digitized using Digidata 1440 (Molecular Devices) and analyzed with pCLAMP 10.5 software.
To investigate the spontaneous calcium transients of the SAN, intact SAN tissue preparations dissected ex vivo from WT and CASQ2-D307H KI mice were exposed to Fluo-4 AM as previously described [Torrente, A. G., et al. Proc Natl Acad Sci USA 112, 9769-9774 (2015)].
FIG. 6A (Left) presents representative traces of spontaneous calcium transients recorded ex vivo in intact SAN tissue preparations from WT mice. […] Right: data summary of calcium transient rate (one-way-ANOVA***P=0.0003; n=12).

Assay [2] relates to T type and L-type Ca2+ currents. Briefly: Selectivity: voltage-ramp protocol in hESC-CMs, zero free Ca2+ in pipet. It counts as cell-based, human. Particulars: 5 μM TRAM-34; zero free Ca2+ in pipet solution; n=7. The protocol: The experiments were performed in zero free Ca2+ in the pipet solution.
Another assay has as its system CASQ2 KO mice. Briefly: In vivo telemetric ECG recording in CASQ2 KO mice. Further details: species or system mouse. Particulars: 20 mg/kg IP; for number of mice, most severe ECG form: NSVT / number of mice, most severe ECG form: Normal (sinusal rhythm) / number of mice, most severe ECG form: SVT / number of mice, most severe ECG form: VPC: n=6. From the text: Telemetric ambulatory long-term ECG recordings, analogous to Holter monitoring in humans, were obtained with implantable transmitters. […] An implantable 3.5 grams wireless radiofrequency transmitter (DSI MM USA, device weight 3.8 grams) was aseptically inserted into a subcutaneous tissue pocket in the back as described in Katz, G., et al. Heart Rhythm 7, 1676-1682 (2010) and Kurtzwald-Josefson, E., et al. Heart Rhythm 11, 1471-1479 (2014)]. Animals were allowed to recover after surgery for at least 24 hours before any experiments. Baseline electrocardiograms (ECG) were obtained 15 minutes after IP injection of the appropriate vehicle (peanut oil or peanut oil supplemented with ethanol 1%). […] Telemetered ECG tracings were obtained in conscious mice at rest for one minute and during peak exercise (i.e. the first minute of recovery). In the treadmill exercise, mice were forced to exercise on a rodent treadmill; gradually increasing the speed up to a maximum of 15 m/minute. Ventricular tachycardia (VT) was defined as four or more consecutive ventricular beats. If this phenotype was consecutively observed for more than 15 seconds, it was defined as “sustained” ventricular tachycardia (SVT). Shorter VTs were characterized as “non-sustained” (NSVT). All other ventricular arrhythmias, such as premature beats, ventricular bigeminy, couplets and triplets were all defined as ventricular premature contractions (VPCs).
A heart telemetry device was implanted in WT, CASQ2-D307H KI and CASQ2 KO mice for continuous ECG recording at rest and during treadmill exercise. For each session, continuous ECG recording was performed with the same animals receiving first intraperitoneal (IP) injection of vehicle (peanut oil) and then the SK4 channel blocker.
The types of arrhythmic features were classified following their seriousness: sinusal rhythm (normal), ventricular premature contractions (VPC), non-sustained ventricular tachycardia (NSVT) and sustained ventricular tachycardia (SVT). For each mouse was considered the most severe form of arrhythmia recorded under ECG.

For the molecule `Clc1ccccc1C(c1ccccc1)(c1ccccc1)n1cccn1` [TRAM-34, 1-[(2-chlorophenyl)diphenylmethyl]-1H-pyrazole], in the assay with CPVT2 hiPSC-CMs, the “number of DADs” value was “drastically reduced the number of DADs” and the spontaneous activity entry is listed as “reversible cessation of the spontaneous activity”. Besides, in the assay with normal hiPSC-CMs, the “cells with suppression of the pacing” value is listed as 10 out of 14, the “maximal diastolic potential (MDP)” value was “depolarized the maximal diastolic potential” and the “slope of diastolic depolarization (DD)” value was “significantly decreased the slope of diastolic depolarization”. For the same molecule, the “pattern of the Ca2+ waves” value in assay [1] is on record as “did not alter the pattern of the Ca^2+ waves”. Moreover, in assay [2], the “T type and L type Ca2+ currents (two inward humps)” value was “does not alter the voltage-gated Ca2+ currents”. In the assay with CASQ2 KO mice (KO mice at rest, n=7), the PR prolongation came to 46% and the heart rate decrease is 34±7%. Besides, the “sinus rate and PR interval” value in the assay on CASQ2 KO mice (KO mice during treadmill exercise) was “significant sinus bradycardia and PR interval prolongation”. Also, in the assay on CASQ2 KO mice (KO at rest), the “number of mice, most severe ECG form: NSVT” value worked out at 0; the “number of mice, most severe ECG form: Normal (sinusal rhythm)” value came out at 6; the “number of mice, most severe ECG form: SVT” value was 0; the “number of mice, most severe ECG form: VPC” value amounted to 0. Besides, in the assay on CASQ2 KO mice (KO during exercise), the “number of mice, most severe ECG form: NSVT” value worked out at 3; the “number of mice, most severe ECG form: Normal (sinusal rhythm)” value was 3; the “number of mice, most severe ECG form: SVT” value is recorded as 0; the “number of mice, most severe ECG form: VPC” value worked out at 0.
